Data taken from US4413007A, “Pesticidal symmetrical N-substituted bis-carbamoyloximino disulfide compounds” (priority 1978, dated 1983).

Tests used:
[1] = system: two-spotted mite (Tetranychus urticae Koch); assay: Mite Foliage Spray Test; format: in vivo; parameters: key: A: excellent control; B: partial control; C: no control; details: 500 ppm, six days
Experimental: (§1) Suspensions of the test compounds were prepared by dissolving one gram of compound in 50 milliliters of acetone in which had been dissolved 0.1 gram (10 percent of the weight of compound) of an alkylphenoxy polyethoxyethanol surfactant, as an emulsifying or dispersing agent. The resulting solution was mixed into 150 milliliters of water to give roughly 200 milliliters of a suspension containing the compound in finely divided form. The thus-prepared stock suspension contained 0.5 percent by weight of compound. The test concentrations in parts per million by weight employed in the tests described hereinbelow were obtained by appropriate dilutions of the stock suspension with water. The test procedures were as follows:
Adults and nymphal stages of the two-spotted mite (Tetranychus urticae Koch), reared on Tendergreen bean plants at 80±5 percent relative humidity, were the test organisms. Infested leaves from a stock culture were placed on the primary leaves of two bean plants six to eight inches in height, growing in a two-and-a-half inch clay pot. 150-200 Mites, a sufficient number for testing, transferred from the excised leaves to the fresh plants in a period of twenty four hours. Following the twenty four hour transfer period, the excised leaves were removed from the infested plants. The test compounds were formulated by diluting the stock suspension with water to give a suspension containing 500 parts of test compound per million parts of final formulation. The potted plants (one pot per compound) were placed on a revolving turntable and sprayed with 100-110 milliliters of test compound formulation by use of a DeVilbiss spray gun set at 40 psig. air pressure. This application, which lasted 25 seconds, was sufficient to wet the plants to run-off. As a control, 100-110 milliliters of a water solution containing acetone and emulsifier in the same concentrations as the test compound formulation, but containing no test compound, were also sprayed on infested plants. The sprayed plants were held at 80±5 percent relative humidity for six days, after which a mortality count of motile forms was made. Microscopic examination for motile forms was made on the leaves of the test plants. Any individual which was capable of locomotion upon prodding was considered living.
(§2) In these tests the pesticidal activity of the compounds against aphid, mite, Southern Armyworm, Bean Beetle and house fly was rated as follows: […]

[2] = system: bean aphid (Aphis fabae Scop.); assay: Bean Aphid Foliage Spray Test; format: in vivo; parameters: key: A: excellent control; B: partial control; C: no control; details: 500 ppm, 24 hour holding period
Experimental: as §1
Adults and nymphal stages of the bean aphid (Aphis fabae Scop.) reared on potted dwarf nasturtium plants at 65°-70° F. and 50-70 percent relative humidity, constituted the test insects. For testing purposes, the number of aphids per pot was standardized to 100-150 by trimming plants containing excess aphids.
The test compounds were formulated by diluting the stock suspension with water to give a suspension containing 500 parts of test compound per million parts of final formulation.
The potted plants (one pot per compound tested) infested with 100-150 aphids, were placed on a revolving turntable and sprayed with 100-110 milliliters of test compound formulation by use of a DeVilbiss spray gun set at 40 psig. air pressure. This application, which tested 25 seconds, was sufficient to wet the plants to run-off. As a control, 100-110 milliliters of a water-acetone-emulsifier solution containing no test compound were also sprayed on infested plants. After spraying, the pots were placed on their sides on a sheet of white standard mimeograph paper which had been previously ruled to facilitate counting. Temperature and humidity in the test room during the 24 hour holding period were 65°-70° F. and 50-70 percent, respectively. Aphids which fell onto the paper and were unable to remain standing after being uprighted were considered dead. Aphids remaining on the plants were observed closely for movement and those which were unable to move the length of the body upon stimulation by prodding were considered dead. Percent mortality was recorded for various concentration levels.
as §2

| SMILES | 2-Spotted Mite control rating [1] | Bean Aphid control rating [2] |
| --- | --- | --- |
| CN(SSN(C)C(=O)ON=C1CSCCS1)C(=O)ON=C1CSCCS1 [N,N'-Bis-[1,4-Dithiane-2-O-(N-methylcarbamoyl)oximino]disulfide] | A | A |
| CSC(C)=NOC(=O)N(C)SSN(C)C(=O)ON=C(C)SC [N,N'-Bis-[1-Methylthioacetaldehyde O-(N-methylcarbamoyl)oxime]disulfide] | C | A |
| CC(=NOC(=O)N(C)SSN(C)C(=O)ON=C(C)SCCC#N)SCCC#N [N,N'-Bis-[1-(2-Cyanoethylthio)acetaldehyde O-(N-methylcarbamoyl)oxime]disulfide] | A | A |
